Source: patent US11208387B2, “Macrocyclic broad spectrum antibiotics” (Genentech, Inc., priority 2019, dated 2021)
pIC50: −log10 of the molar value. Converted amounts (≈) assume the structure as drawn. Where two headings read alike, the source gives them in different places.

How the values were obtained:
[1] = tested on: isolated liver mitochondria; experiment: Mitochondrial oxygen consumption rate (OCR) assay; type: biochemical, Sprague-Dawley rats; details: isolated rat liver mitochondria, state 3 (S3) respiration, glutamate/malate; Table 3
Excerpt: Male Sprague-Dawley rats (8-10 weeks of age) were euthanized with an overdose of carbon dioxide. The liver was rapidly excised and placed in ice-cold phosphate-buffered saline (PBS) before isolation process. Mitochondria were isolated using the MitoCheck® Mitochondrial Isolation Kit (Cayman Chemical #701010, Ann Arbor, Mich.) according to manufacturer's instructions. In brief, approximately 10-14 grams of liver tissues were finely minced using a pair of scissors, and washed repeatedly with ice-cold PBS, followed by Mito Isolation Buffer. The minced tissues were homogenized with 30 ml Mito Homogenization Buffer in 40 ml dounce homogenizer and a smooth glass grinder. The homogenate was split into two clean 30 ml polycarbonate tubes and centrifuged at 1,000×g, 4° C., for 3 minutes. The supernatant was subjected to further centrifugation at 10,000×g, 4° C., for 10 minutes. The supernatant was discarded and mitochondrial pellet was suspended in Mito Isolation Buffer using a glass stirring rod and stored on ice until use. Protein concentration of mitochondria was determined using a bicinchoninic acid protein assay kit (Thermo Scientific, Waltham, Mass.).
Oxygen consumption was monitored as essentially described by Will et al., “Analysis of mitochondrial function using phosphorescent oxygen-sensitive probes,” Nature Protocols Vol. 1(6) (2006) 2563. Briefly, isolated mitochondria (50 μg mitochondrial proteins/state 3 (S3) of mitochondrial respiration for inhibitor identification, 100 μg/S2 for uncoupler identification) were incubated with compounds in 25 μl of Measurement Buffer (MB: 250 mM sucrose, 15 mM KCl, 1 mM EGTA, 5 mM MgCl2, 30 mM K2HPO4, pH 7.4) including 1% DMSO on ice for 1 hour, then mixed with 25 μl of substrate mixture including an oxygen-sensitive phosphorescent dye (MitoXpress Xtra, Agilent, Santa Clara, Calif.), glutamate (25 mM, G1626, Sigma, St. Louis, Mo.), malate (25 mM, M6413, Sigma), ADP (3.3 mM, A2754, Sigma, only for S3 of mitochondrial respiration), Fatty acid free BSA (0.1%, A0281, Sigma), and a complex II-specific inhibitor TTFA (2 μM, T27006, Sigma for the assessment of complex I-mitochondrial respiration with glutamate/malate) in a black wall/clear bottom 384-well plate. The mixtures were covered with HS mineral oil (Agilent) using the Viaflo 384-channel pipette (Integra, Hudson, N.H.). Oxygen consumption was measured for 30 min at 30° C. using a spectrofluorimeter (FLUOstar Omega, BMG Labtech, Cary, N.C.). In S3, DMSO vehicle control and antimycin A (10 μM) were used to define 0% and 100% inhibition. In S2, DMSO vehicle and FCCP (0.5-1 μM) was used to define 0% and 100% uncoupling, respectively. Area under curve typically in a range of 0-12 min (S3) or 0-24 min (S2) was used for calculations. IC50 or UC50 (uncoupling concentration), a concentration that causes 50% of inhibition or maximal (uncoupling) activation of oxygen consumption, was used to evaluate experimental quality. Data were presented as μM (per 50 μg (S3) or 100 μg (S2) mitochondrial proteins). Compounds with IC50: <100 μM (S3) and/or UC50: <200 μM (S2) were considered as high-risk on mitochondrial toxicity. Compounds with 25-50% changes in inhibition and/or uncoupling were categorized as medium-risk, since compounds with >25% changes are considered as responders.
Toxicity associated with mitochondrial dysfunction has presented a problem for promising potential antibiotics as we as other types of therapeutics. The mitochondrial oxygen consumption rate (OCR) assay is considered a reliable indicator of potential internal organ toxicity issues that may occur with powerful antibiotics. The carboxylate compounds of the invention show unexpected lower toxicity than prior art “glycine nitrile” arylomycin analogs (see, e.g., WO 2018/149419) in the mitochondrial oxygen consumption rate (OCR) assay.

[2] = tested on: Acinetobacter baumannii ATCC 17978; experiment: Serum MIC, broth micro-dilution; type: cell-based; details: Acinetobacter baumannii, ATCC17978
How it was run: (§1)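 Plates held at 35 °C for 22 h after adding bacteria to a final OD600 of 0.0005. Medium was a 1:1 mix of mouse serum and cation-adjusted Mueller Hinton II broth. Ten two-fold compound dilutions began at 64, 4, 0.5 or 0.13 μg/mL, per CLSI microdilution.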

[3] = tested on: Escherichia coli strain ATCC 25922; experiment: Serum MIC, broth micro-dilution; type: cell-based; details: Escherichia coli, ATCC25922, read-out: E. coli 25922 Serum MIC
How it was run: as §1

[4] = tested on: Klebsiella pneumoniae ATCC 700603; experiment: Serum MIC, broth micro-dilution; type: cell-based; details: Klebsiella pneumoniae, ATCC700603
How it was run: as §1

[5] = tested on: Pseudomonas aeruginosa PA01; experiment: Serum MIC, broth micro-dilution; type: cell-based; details: Pseudomonas aeruginosa, PA01, read-out: P. aeruginosa 01 Serum MIC
How it was run: as §1

[6] = 50% v/v mouse serum in Mueller Hinton II cation adjusted Broth, 35° C., 22 hours, Table 4, read-out: A. baumanii 17978 Serum MIC
[7] = 50% v/v mouse serum in Mueller Hinton II cation adjusted Broth, 35° C., 22 hours, Table 5, read-out: Acinetobacter baumanii 17978 Serum MIC
[8] = 50% v/v mouse serum in Mueller Hinton II cation adjusted Broth, 35° C., 22 hours, Table 4
[9] = 50% v/v mouse serum in Mueller Hinton II cation adjusted Broth, 35° C., 22 hours, Table 4, read-out: K pneumoniae 700603 Serum MIC
[10] = 50% v/v mouse serum, compounds of Table 1, Table 7

| MIC ([2]; 50% v/v mouse serum, compounds of Table 1, Table 7, read-out: A. baumanii 17978 Serum MIC) [µM] | MIC [3, 10] [µM] | MIC ([4]; 50% v/v mouse serum, compounds of Table 1, Table 7, read-out: K. pneumoniae 700603 Serum MIC) [µM] | MIC [5, 10] [µM] | Compound | pIC50 [1] | MIC [2, 6] [µM] | MIC [2, 7] [µM] | MIC [3, 8] [µM] | MIC [4, 9] [µM] | MIC [5, 8] [µM] |
| --- | --- | --- | --- | --- | --- | --- | --- | --- | --- | --- |
| – | – | – | – | Cc1nc(-c2ccc(OCCC(C)(C)C)cc2)ncc1C(=O)N[C@@H](CCN)C(=O)N(C)[C@@H]1C(=O)N[C@@H](C)C(=O)N[C@H](C(=O)O)Cc2ccc(OC[C@H](O)CN)c(c2)-c2cc1cc(OC[C@H](O)CN)c2O [Example 27, (8S,11S,14S)-18-hydroxy-11-methyl-14-[methyl-[(2S)-4-amino-2-[[2-[4-(3,3-dimethylbutoxy)-phenyl]-4-methyl-pyrimidine-5-carbonyl]amino]-butanoyl]amino]-10,13-dioxo-3,17-bis[(2R)-3-amino-2-hydroxy-propoxy]-9,12-diazatricyclo-[13.3.1.12,6]icosa-1(18),2(20),3,5,15(19), 16-hexaene-8-carboxylic acid] | 4.70 | 12 (≈ 11.7 µg/mL) | 12 (≈ 11.7 µg/mL) | 0.25 (≈ 0.243 µg/mL) | 0.25 (≈ 0.243 µg/mL) | 8 (≈ 7.78 µg/mL) |
| – | – | – | – | C[C@@H]1NC(=O)[C@@H](N(C)C(=O)[C@H](CCN)NC(=O)c2cnn(-c3ccc(OCCC(C)(C)C)cc3)c(=O)c2)c2cc(OC[C@H](O)CN)c(O)c(c2)-c2cc(ccc2OC[C@H](O)CN)C[C@@H](C(=O)O)NC1=O [Example 22, (8S,11S,14S)-18-hydroxy-11-methyl-14-[methyl-[(2S)-4-amino-2-[[1-[4-(3,3-dimethylbutoxy)-phenyl]-6-oxo-pyridazine-4-carbonyl]amino]-butanoyl]amino]-10,13-dioxo-3,17-bis[(2R)-3-amino-2-hydroxy-propoxy]-9,12-diazatricyclo-[13.3.1.12,6]icosa-1(18),2(20),3,5,15(19), 16-hexaene-8-carboxylic acid] | – | 32 (≈ 31.2 µg/mL) | 32 (≈ 31.2 µg/mL) | 1 (≈ 0.974 µg/mL) | 0.5 (≈ 0.487 µg/mL) | 32 (≈ 31.2 µg/mL) |
| – | – | – | – | Cc1cc(C(C)(C)C)ccc1-c1nc(C)c(C(=O)N[C@@H](CNS(N)(=O)=O)C(=O)N(C)[C@@H]2C(=O)N[C@@H](C)C(=O)N[C@H](C(=O)O)Cc3ccc(OC[C@H](O)CN)c(c3)-c3cc2cc(OC[C@H](O)CN)c3O)c(N)n1 [Example 59, (8S,11S,14S)-14-[[(2S)-2-[[4-amino-2-(4-tert-butyl-2-methyl-phenyl)-6-methyl-pyrimidine-5-carbonyl]amino]-3-(sulfamoylamino)-propanoyl]-methyl-amino]-3,17-bis[(2R)-3-amino-2-hydroxy-propoxy]-18-hydroxy-11-methyl-10,13-dioxo-9,12-diazatricyclo-[13.3.1.12,6]icosa-1(18),2(20),3,5,15(19), 16-hexaene-8-carboxylic acid] | – | 16 (≈ 16.4 µg/mL) | 16 (≈ 16.4 µg/mL) | 1 (≈ 1.02 µg/mL) | 1 (≈ 1.02 µg/mL) | 4 (≈ 4.09 µg/mL) |
| – | – | – | – | Cc1nc(-c2cc3c(cc2O)C(C)(C)CC3)nc(N)c1C(=O)N[C@@H](CNS(N)(=O)=O)C(=O)N(C)[C@@H]1C(=O)N[C@@H](C)C(=O)N[C@H](C(=O)O)Cc2ccc(OC[C@H](O)CN)c(c2)-c2cc1cc(OC[C@H](O)CN)c2O [Example 57, (8S,11S,14S)-18-hydroxy-11-methyl-14-[methyl-[(2S)-2-[[4-amino-2-(6-hydroxy-1,1-dimethyl-indan-5-yl)-6-methyl-pyrimidine-5-carbonyl]amino]-3-(sulfamoylamino)-propanoyl]amino]-10,13-dioxo-3,17-bis[(2R)-3-amino-2-hydroxy-propoxy]-9,12-diazatricyclo-[13.3.1.12,6]icosa-1(18),2(20),3,5,15(19), 16-hexaene-8-carboxylic acid] | – | 16 (≈ 16.6 µg/mL) | 16 (≈ 16.6 µg/mL) | 0.75 (≈ 0.777 µg/mL) | 1 (≈ 1.04 µg/mL) | 8 (≈ 8.29 µg/mL) |
| – | – | – | – | Cc1nc(-c2ccc(OCCC(C)(C)C)cc2)nc(N)c1C(=O)N[C@@H](CNS(N)(=O)=O)C(=O)N(C)[C@@H]1C(=O)N[C@@H](C)C(=O)N[C@H](C(=O)O)Cc2ccc(OC[C@H](O)CN)c(c2)-c2cc1cc(OC[C@H](O)CN)c2O [Example 3, (8S,11S,14S)-18-hydroxy-11-methyl-14-[methyl-[(2S)-2-[[4-amino-2-[4-(3,3-dimethylbutoxy)-phenyl]-6-methyl-pyrimidine-5-carbonyl]amino]-3-(sulfamoylamino)-propanoyl]amino]-10,13-dioxo-3,17-bis[(2R)-3-amino-2-hydroxy-propoxy]-9,12-diazatricyclo-[13.3.1.12,6]icosa-1(18),2(20),3,5,15(19), 16-hexaene-8-carboxylic acid] | – | 12 (≈ 12.6 µg/mL) | 12 (≈ 12.6 µg/mL) | 0.5 (≈ 0.526 µg/mL) | 0.5 (≈ 0.526 µg/mL) | 4 (≈ 4.21 µg/mL) |
| – | – | – | – | Cc1nc(-c2ccc3c(c2)CCC3(C)C)nc(N)c1C(=O)N[C@@H](CCN)C(=O)N(C)[C@@H]1C(=O)N[C@@H](C)C(=O)N[C@H](C(=O)O)Cc2ccc(OC[C@H](O)CN)c(c2)-c2cc1cc(OC[C@H](O)CN)c2O [Example 47, (8S,11S,14S)-18-hydroxy-11-methyl-14-[methyl-[(2S)-4-amino-2-[[4-amino-2-(1,1-dimethylindan-5-yl)-6-methyl-pyrimidine-5-carbonyl]amino]-butanoyl]amino]-10,13-dioxo-3,17-bis[(2R)-3-amino-2-hydroxy-propoxy]-9,12-diazatricyclo-[13.3.1.12,6]icosa-1(18),2(20),3,5,15(19), 16-hexaene-8-carboxylic acid] | – | 16 (≈ 15.3 µg/mL) | 16 (≈ 15.3 µg/mL) | 0.25 (≈ 0.239 µg/mL) | 0.25 (≈ 0.239 µg/mL) | 16 (≈ 15.3 µg/mL) |
| 73 (≈ 60.2 µg/mL) | 2.3 (≈ 1.9 µg/mL) | 4.6 (≈ 3.79 µg/mL) | 73 (≈ 60.2 µg/mL) | Cc1nc(-c2ccc(OC(C)C)cc2)nc(C)c1C(=O)N[C@@H](CCN)C(=O)N(C)[C@@H]1C(=O)N[C@@H](C)C(=O)N[C@H](C(=O)O)Cc2ccc(O)c(c2)-c2cc1ccc2OCCN (racemic) [Example 643] | – | – | – | – | – | – |
